Assay results published in the supplement of paper PMC10307832.

Assays:
Experiment in all cases: relative viability (nuclei count vs DMSO), 5 days (fraction); higher = more cells survive
[1] = compound: CC1=CC(=NN1)NC2=CC(=NC(=N2)/C=C/C3=CC=CC=C3)N4CCN(CC4)C + CS(=O)(=O)N1CCN(Cc2cc3nc(-c4cccc5[nH]ncc45)nc(N4CCOCC4)c3s2)CC1 [Pictilisib] (partner 1 µM)
Method in brief: (§1)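 Five library-drug doses in √10 steps were combined with a fixed anchor-drug dose, or a single drug was given alone, by pin tool to lung cancer cell lines in 1536-well plates the day after seeding. Nuclei were stained and counted after 5 days. Relative viability is the nuclei count in treated wells over that in vehicle wells, taken as the median of duplicate plates.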

Bortezomib + AZD7762 = compound: CC(C)C[C@H](NC(=O)[C@H](Cc1ccccc1)NC(=O)c1cnccn1)B(O)O [Bortezomib] + NC(=O)Nc1cc(-c2cccc(F)c2)sc1C(=O)N[C@H]1CCCNC1 [AZD7762] (partner 0.2 µM)
Method in brief: as §1

Bortezomib + OSI-027 = compound: CC(C)C[C@H](NC(=O)[C@H](Cc1ccccc1)NC(=O)c1cnccn1)B(O)O [Bortezomib] + COc1cccc2cc(-c3nc([C@H]4CC[C@H](C(=O)O)CC4)n4ncnc(N)c34)[nH]c12 [OSI-027] (partner 0.5 µM)
Method in brief: as §1

[2] = compound: CC1=CC(=NN1)NC2=CC(=NC(=N2)/C=C/C3=CC=CC=C3)N4CCN(CC4)C + C[C@]1(O)C[C@@H](c2nc(-c3ccc4ccc(-c5ccccc5)nc4c3)c3c(N)nccn32)C1 [Linsitinib] (partner 1 µM)
Method in brief: as §1

Cell Line	relative viability ([1]; first compound 0.08 µM)	relative viability ([1]; first compound 0.253 µM)	relative viability ([1]; first compound 0.8 µM)	relative viability ([1]; first compound 2.53 µM)	relative viability ([1]; first compound 8 µM)	relative viability (Bortezomib + AZD7762; first compound 0.0002 µM)	relative viability (Bortezomib + AZD7762; first compound 0.000632 µM)	relative viability (Bortezomib + AZD7762; first compound 0.002 µM)	relative viability (Bortezomib + AZD7762; first compound 0.006325 µM)	relative viability (Bortezomib + AZD7762; first compound 0.02 µM)	relative viability (Bortezomib + OSI-027; first compound 0.0002 µM)	relative viability (Bortezomib + OSI-027; first compound 0.000632 µM)	relative viability (Bortezomib + OSI-027; first compound 0.002 µM)	relative viability (Bortezomib + OSI-027; first compound 0.006325 µM)	relative viability (Bortezomib + OSI-027; first compound 0.02 µM)	relative viability ([2]; first compound 0.08 µM)	relative viability ([2]; first compound 0.253 µM)	relative viability ([2]; first compound 0.8 µM)	relative viability ([2]; first compound 2.53 µM)	relative viability ([2]; first compound 8 µM)
NCI-H727	0.357	0.298	0.34	0.199	0.153	0.631	0.611	0.688	0.698	0.595	0.557	0.515	0.494	0.467	0.378	0.208	0.342	0.261	0.221	0.1
PC-3 [JPC-3]	0.763	0.721	0.706	0.648	0.579	0.773	0.829	0.531	0.225	0.199	0.807	0.824	0.806	0.446	0.122	1.01	1.02	0.918	0.95	0.814
NCI-H1944	0.317	0.34	0.348	0.281	0.223	0.508	0.511	0.637	0.295	0.166	0.383	0.383	0.449	0.347	0.239	1.21	1.4	1.23	0.86	0.348
NCI-H1792	0.268	0.259	0.293	0.205	0.0778	0.657	0.693	0.602	0.344	0.0353	0.687	0.577	0.563	0.654	0.497	0.58	0.56	0.513	0.316	0.112
LU99A	0.328	0.296	0.284	0.157	0.142	0.373	0.344	0.381	0.437	0.163	0.328	0.294	0.318	0.296	0.197	0.489	0.485	0.466	0.228	0.138
H3255	0.507	0.534	0.497	0.396	0.205	0.867	–	0.655	0.517	0.328	0.593	0.601	0.466	0.352	0.28	0.95	1.09	0.975	0.886	0.391
NCI-H1734	0.463	0.422	0.456	0.214	0.122	0.563	0.541	0.57	0.116	0.0989	0.635	0.452	0.541	0.164	0.133	0.907	0.867	0.917	0.478	0.196
NCI-H1915	0.948	0.674	0.885	0.571	0.289	0.751	0.726	0.715	0.163	0.0511	0.582	0.507	0.613	0.186	0.0754	1.1	1.1	1.03	0.815	0.569
NCI-H1651	0.656	0.622	0.583	0.201	0.0876	0.451	0.474	0.485	0.507	0.131	0.661	0.641	0.416	0.109	0.11	0.904	1.2	0.855	0.607	0.144
HOP-62	0.558	0.458	0.919	0.429	0.0856	0.603	0.387	0.51	0.25	0.043	0.981	0.914	0.691	0.149	0.0803	0.959	1.11	0.99	0.875	0.326
CAL-12T	0.335	0.426	0.48	0.187	0.147	0.608	0.596	0.602	0.576	0.271	0.757	0.578	0.754	0.165	0.129	0.756	0.69	0.979	0.49	0.214
LCLC-103H	0.623	0.676	0.58	0.5	0.347	0.816	0.769	0.764	0.748	0.201	0.482	0.511	0.492	0.201	0.14	1.16	1.09	1.13	1.12	0.809
NCI-H3122	0.588	0.345	0.659	0.428	0.291	0.976	1.09	1.03	0.784	0.11	0.993	1.03	0.935	0.206	0.133	1.01	0.944	0.999	0.884	0.77
NCI-H1395	0.668	0.669	0.583	0.379	0.239	0.381	0.393	0.385	0.323	0.304	0.574	0.529	0.639	0.353	0.271	1	1.15	1.04	0.533	0.361
PC-14	0.651	0.635	0.56	0.199	0.0209	0.279	0.336	0.364	0.123	0.0742	–	0.765	0.714	0.033	0.0438	0.906	1.01	0.892	0.77	0.107
BEN	0.622	0.578	0.598	0.411	0.193	0.667	0.788	0.73	0.578	0.389	0.302	0.288	0.28	0.259	0.167	0.953	0.955	0.96	0.76	0.194
